The values below come from ChEMBL document CHEMBL4229522, “Inhibition of the LOX enzyme family members with old and new ligands. Selectivity analysis revisited” (Bioorg Med Chem Lett, 2018).

pIC50: −log10 of the molar value. Some results are limits rather than exact numbers.

Assay [1] has as its target T1, Lysyl oxidase homolog 2 (Homo sapiens) (UniProt Q9Y4K0).
T1 sequence (whole entry): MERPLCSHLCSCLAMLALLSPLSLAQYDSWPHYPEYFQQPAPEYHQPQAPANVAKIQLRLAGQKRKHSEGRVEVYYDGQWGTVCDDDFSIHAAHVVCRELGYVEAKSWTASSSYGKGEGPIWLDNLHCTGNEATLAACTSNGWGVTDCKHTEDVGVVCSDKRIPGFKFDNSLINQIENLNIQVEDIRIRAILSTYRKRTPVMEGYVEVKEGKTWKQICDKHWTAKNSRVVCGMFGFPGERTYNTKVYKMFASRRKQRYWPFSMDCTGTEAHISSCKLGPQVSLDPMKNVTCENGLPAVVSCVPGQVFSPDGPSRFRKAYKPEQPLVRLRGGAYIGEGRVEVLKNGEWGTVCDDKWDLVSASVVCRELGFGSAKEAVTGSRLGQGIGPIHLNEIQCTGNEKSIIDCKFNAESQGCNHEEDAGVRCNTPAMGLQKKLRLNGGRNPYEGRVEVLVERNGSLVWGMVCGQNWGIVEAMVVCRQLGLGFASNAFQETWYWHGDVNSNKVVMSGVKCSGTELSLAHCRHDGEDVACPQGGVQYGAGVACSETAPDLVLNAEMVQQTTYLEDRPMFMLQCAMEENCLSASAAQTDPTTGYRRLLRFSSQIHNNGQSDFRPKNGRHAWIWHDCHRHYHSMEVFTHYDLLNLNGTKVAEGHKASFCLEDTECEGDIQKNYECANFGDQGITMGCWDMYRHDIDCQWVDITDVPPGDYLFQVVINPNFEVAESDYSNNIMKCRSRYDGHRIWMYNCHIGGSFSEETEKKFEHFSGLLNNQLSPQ
Description: Inhibition of recombinant LOXL2 (unknown origin) expressed in NS0 cells at 10 uM using diaminopentane as substrate preincubated for 30 mins followed by substrate addition measured after 1 hr by fluorimetric method relative to control.

For the next assay, the target named is T2, Protein-lysine 6-oxidase (Homo sapiens, UniProt P28300).
T2 sequence (P28300 whole entry): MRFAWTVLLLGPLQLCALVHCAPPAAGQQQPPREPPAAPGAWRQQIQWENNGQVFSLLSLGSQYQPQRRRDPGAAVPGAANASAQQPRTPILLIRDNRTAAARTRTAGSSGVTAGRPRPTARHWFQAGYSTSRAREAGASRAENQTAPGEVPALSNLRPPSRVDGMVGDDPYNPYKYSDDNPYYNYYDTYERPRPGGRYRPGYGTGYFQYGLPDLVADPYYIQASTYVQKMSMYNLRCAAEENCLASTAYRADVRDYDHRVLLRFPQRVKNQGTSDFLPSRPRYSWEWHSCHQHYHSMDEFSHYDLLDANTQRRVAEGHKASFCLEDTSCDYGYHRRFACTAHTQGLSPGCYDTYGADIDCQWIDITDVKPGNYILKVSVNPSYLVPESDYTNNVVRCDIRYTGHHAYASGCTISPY
Description: Inhibition of recombinant human LOX expressed in HEK293 cells using diaminopentane as substrate preincubated for 30 mins followed by substrate addition measured after 1 hr by fluorimetric method. The assay is classed as cell-based.

A further assay has as its target T3, Lysyl oxidase homolog 4 (Homo sapiens, UniProt Q96JB6).
T3 sequence (Q96JB6 whole entry): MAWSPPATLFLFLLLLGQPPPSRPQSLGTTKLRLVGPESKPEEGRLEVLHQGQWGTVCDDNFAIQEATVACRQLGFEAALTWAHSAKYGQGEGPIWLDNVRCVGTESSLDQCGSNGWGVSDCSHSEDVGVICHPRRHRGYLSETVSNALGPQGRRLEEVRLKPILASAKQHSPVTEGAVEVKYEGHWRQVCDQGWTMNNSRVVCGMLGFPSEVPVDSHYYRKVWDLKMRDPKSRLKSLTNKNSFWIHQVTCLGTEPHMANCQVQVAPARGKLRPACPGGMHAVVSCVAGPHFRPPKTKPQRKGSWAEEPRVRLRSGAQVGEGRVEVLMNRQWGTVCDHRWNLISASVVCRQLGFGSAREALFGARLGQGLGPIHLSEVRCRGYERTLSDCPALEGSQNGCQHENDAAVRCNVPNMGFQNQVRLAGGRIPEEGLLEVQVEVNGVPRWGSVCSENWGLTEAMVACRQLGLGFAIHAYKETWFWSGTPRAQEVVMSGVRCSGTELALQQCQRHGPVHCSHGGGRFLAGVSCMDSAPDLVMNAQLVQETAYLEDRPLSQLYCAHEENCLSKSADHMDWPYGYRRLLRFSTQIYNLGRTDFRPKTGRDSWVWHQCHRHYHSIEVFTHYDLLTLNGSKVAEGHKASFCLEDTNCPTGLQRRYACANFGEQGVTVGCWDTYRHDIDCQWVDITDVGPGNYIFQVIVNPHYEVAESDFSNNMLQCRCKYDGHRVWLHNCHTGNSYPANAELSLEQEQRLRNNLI
Description: Inhibition of recombinant human LOXL4 expressed in baculovirus infected insect cells using diaminopentane as substrate preincubated for 30 mins followed by substrate addition measured after 1 hr by fluorimetric method.

Assay [2] concerns the target T4, Lysyl oxidase homolog 4 (Homo sapiens) (UniProt Q96JB6).
T4 sequence (whole entry): T3 sequence (Q96JB6 whole entry)
Put plainly: Inhibition of recombinant human LOXL4 expressed in baculovirus infected insect cells at 10 uM using diaminopentane as substrate preincubated for 30 mins followed by substrate addition measured after 1 hr by fluorimetric method relative to control.

The target of the next assay is T5, Lysyl oxidase homolog 3 (Homo sapiens, UniProt P58215).
T5 sequence (P58215 whole entry): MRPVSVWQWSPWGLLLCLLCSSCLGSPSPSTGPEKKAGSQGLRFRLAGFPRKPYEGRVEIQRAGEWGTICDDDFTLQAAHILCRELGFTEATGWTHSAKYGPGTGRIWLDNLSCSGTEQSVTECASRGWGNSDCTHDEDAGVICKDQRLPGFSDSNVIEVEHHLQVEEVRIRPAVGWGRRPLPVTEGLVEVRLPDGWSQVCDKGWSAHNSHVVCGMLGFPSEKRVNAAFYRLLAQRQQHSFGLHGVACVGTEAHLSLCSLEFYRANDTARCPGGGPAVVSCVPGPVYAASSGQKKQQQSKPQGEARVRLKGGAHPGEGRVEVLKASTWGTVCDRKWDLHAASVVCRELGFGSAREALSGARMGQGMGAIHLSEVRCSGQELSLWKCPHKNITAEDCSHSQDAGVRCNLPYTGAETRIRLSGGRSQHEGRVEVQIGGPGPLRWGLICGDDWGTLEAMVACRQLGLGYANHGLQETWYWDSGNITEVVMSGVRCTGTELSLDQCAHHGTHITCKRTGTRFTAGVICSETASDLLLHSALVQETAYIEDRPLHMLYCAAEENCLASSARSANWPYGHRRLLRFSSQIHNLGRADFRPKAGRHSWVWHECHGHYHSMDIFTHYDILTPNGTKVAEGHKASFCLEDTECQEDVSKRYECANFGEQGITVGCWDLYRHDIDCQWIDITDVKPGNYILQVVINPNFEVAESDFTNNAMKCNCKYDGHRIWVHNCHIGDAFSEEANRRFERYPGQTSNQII
Put plainly: Inhibition of recombinant human LOXL3 expressed in CHO cells using diaminopentane as substrate preincubated for 30 mins followed by substrate addition measured after 1 hr by fluorimetric method.

A further assay addresses T6, Lysyl oxidase homolog 2 (Homo sapiens, UniProt Q9Y4K0).
T6 sequence (Q9Y4K0 whole entry): T1 sequence (whole entry)
Put plainly: Inhibition of recombinant LOXL2 (unknown origin) expressed in NS0 cells using diaminopentane as substrate preincubated for 30 mins followed by substrate addition measured after 1 hr by fluorimetric method.

Regarding `O=c1c2cccnc2[nH]c(=S)n1-c1ccccc1`, the inhibition in assay [1] and in assay [2] was less than 40% throughout. In addition, the pIC50 is less than 4.00 on Protein-lysine 6-oxidase, less than 4.00 on Lysyl oxidase homolog 4, 4.74 at Lysyl oxidase homolog 3 and 4.12 at Lysyl oxidase homolog 2.
On to `N#CCCN`, for which the pIC50 is less than 4.00 at Protein-lysine 6-oxidase, less than 4.00 on Lysyl oxidase homolog 4, 6.77 on Lysyl oxidase homolog 3 and 7.14 at Lysyl oxidase homolog 2. For the same molecule, in assay [2], the inhibition is less than 40%.
For the molecule `CC1=NN(c2ccccc2)C(=O)/C1=C/NNc1nnc(C)c(O)n1`, the inhibition in assay [1] and in assay [2] was less than 40% throughout. In addition, the negative-log IC50 (pIC50) is less than 4.00 at Lysyl oxidase homolog 4 and 4.47 on Lysyl oxidase homolog 2.
Regarding `CC(C)(C)C1=NN(c2ccccc2)C(=O)C1`, the inhibition in assay [1] and in assay [2] was less than 40% each time. The pIC50 at Protein-lysine 6-oxidase is 4.12; at Lysyl oxidase homolog 4, less than 4.00; on Lysyl oxidase homolog 3, less than 4.00; on Lysyl oxidase homolog 2 it was less than 4.00.
As for `O=c1c2ccc(-c3cccs3)nc2[nH]n1-c1ccccc1`, the inhibition in assay [1] and in assay [2] was less than 40% in each case. Besides, the negative logarithm of the IC50 (pIC50) at Protein-lysine 6-oxidase is less than 4.00; on Lysyl oxidase homolog 4, less than 4.00; on Lysyl oxidase homolog 2, 5.11.
`CC1=NN(c2ccccc2)C(=O)C1C` (stereo not drawn): the inhibition in assay [1] and in assay [2] was less than 40% throughout. Besides, the pIC50 on Protein-lysine 6-oxidase was 5.59; on Lysyl oxidase homolog 4, 5.68; at Lysyl oxidase homolog 3, 5.89; on Lysyl oxidase homolog 2, 5.68.
Regarding `[O-][n+]1ccccc1S` [PYRITHIONE], the inhibition in assay [1] and in assay [2] was less than 40% throughout. Moreover, the pIC50 at Protein-lysine 6-oxidase was 4.48; at Lysyl oxidase homolog 4, 4.82; on Lysyl oxidase homolog 3, 4.92; on Lysyl oxidase homolog 2, 4.74.
On to `Cc1cc(C)c2c(=O)n(-c3ccccc3)[nH]c2n1`, for which the inhibition in assay [1] and in assay [2] was less than 40% in each case. Further, the pIC50 at Protein-lysine 6-oxidase was 4.46; on Lysyl oxidase homolog 4 it was less than 4.00; on Lysyl oxidase homolog 3, less than 4.00; on Lysyl oxidase homolog 2, 4.60.
Take `CCN(CC)C(=S)SSC(=S)N(CC)CC` [DISULFIRAM]: the inhibition in assay [1] and in assay [2] was less than 40% throughout. Further, the pIC50 on Protein-lysine 6-oxidase is 6.49; on Lysyl oxidase homolog 4 it was 7.23; on Lysyl oxidase homolog 3, 7.03; at Lysyl oxidase homolog 2, 6.82.
Regarding `CCOC(=O)c1sc(N/N=C2\C(=O)N(c3ccccc3)N=C2N)c(C(=O)OCC)c1C`, the inhibition in assay [1] and in assay [2] was less than 40% throughout. Further, the results for the pIC50 at Lysyl oxidase homolog 4, at Lysyl oxidase homolog 3 and at Lysyl oxidase homolog 2 were 5.48, less than 4.00 and less than 4.00, respectively.
With `CCN1/C(=C2\C(=O)N(c3ccccc3)N=C2Nc2ccccc2)C=Cc2ccccc21`, the inhibition in assay [1] and in assay [2] was less than 40% each time. In addition, the negative logarithm of the IC50 (pIC50) is less than 4.00 on Lysyl oxidase homolog 4 and 6.00 at Lysyl oxidase homolog 2.
Turning to `COc1ccccc1-c1cc(=O)c2c(=O)n(-c3ccccc3)[nH]c2[nH]1`, the inhibition in assay [1] and in assay [2] was less than 40% each time. The negative logarithm of the IC50 (pIC50) was less than 4.00 on Lysyl oxidase homolog 4 and 4.35 on Lysyl oxidase homolog 2.
As to `Cc1cc(-c2ccc3c(=O)n(-c4ccccc4)[nH]c3n2)c(C)o1`, the inhibition in assay [1] and in assay [2] was less than 40% each time. Also, the pIC50 is 4.26 on Lysyl oxidase homolog 4 and 5.42 at Lysyl oxidase homolog 2.
On to `CN(C)C(=S)SSC(=S)N(C)C` [THIRAM], for which the inhibition in assay [1] and in assay [2] was less than 40% in each case. Further, the negative logarithm of the IC50 (pIC50) is 5.98 at Protein-lysine 6-oxidase, 6.74 at Lysyl oxidase homolog 4, 6.96 at Lysyl oxidase homolog 3 and 6.77 on Lysyl oxidase homolog 2.
